The results in this text go back to US20090179638A1, “ASSAY FOR IDENTIFYING INHIBITORS OF NEURONAL APOPTOTIC PATHWAYS” (AEGERA THERAPEUTICS INC., priority 2006, published 2009).

In one test the test system is Akt. The test is described as follows: Akt levels in PC12 cells (immunoblot). The conditions noted are these: 16 hours. Type of test: cell-based.
The test system of another test is PC12 cells. As to the kind of experiment: PC12 cell death induced by chemotherapeutic drugs (LDH assay). It counts as cell-based. The procedure: FIG. 3 is a graph showing that compound 1 inhibits JNK-dependent cell death induced by chemotherapeutic drugs. Cells were infected with AdNRG at 5 MOI or treated with paclitaxel, cisplatin, or doxorubicin (Dox) at the indicated μM concentrations. At the time of treatment, compound 1 or vehicle was added to the cultures, as indicated. After 40 hours, cells were assayed for death using the LDH assay. Results are normalized relative to those obtained with 1% Triton (Tx), and represent the mean±standard deviation of a representative experiment performed in triplicate (*=P<0.01 relative to 0 μM compound 1 for each insult). Experiments were performed twice with identical results.
The ability of compound 1 to inhibit apoptosis in response to a variety of other insults, including the DNA damaging agent, cisplatin, the microtubule disruptor, paclitaxel, and doxorubicin, a topoisomerase inhibitor was investigated. […] Cisplatin-induced apoptosis has been reported to be JNK-dependent when used at low concentrations (10 μM), but JNK-independent at concentrations >25 μM (Sanchez-Perez and Perona, 1999) and consistent with this, compound 1 protected cells exposed to 10 μM, but not 50 μM, cisplatin (FIG. 3).
Cell culture, infection, transfection and immunoblotting. Sympathetic neurons were maintained and deprived of NGF as previously described (Bamji et al., 1998; Ma et al., 1992). PC12^rtTA cells were maintained and infected as previously described (Majdan et al., 1997; Salehi et al., 2002); for NRAGE, […] doxycycline was added to all plates at time of infection. Wildtype and HSF1 nullizygous immortalized mouse embryonic fibroblasts (MEFs) were maintained in DMEM containing 10% fetal calf serum, 1 μM β-mercaptoethanol, 1% non-essential amino acids, 1% L-glutamine, 1% antimycotic solution and 1% sodium pyruvate (all from GibcoBRL). Sympathetic neuron survival was assessed using the MTS assay according to the manufacturer's instructions (Promega). Analysis of PC12 cell death was determined using a lactate dehydrogenase (LDH) assay (Roche) as per the manufacturer's instructions. Transfections using plasmids or RNAi were performed using Lipofectamine 2000. Immunoblotting was performed as previously described (Majdan et al., 1997; Salehi et al., 2002).

Test [1] relates to HSP90. As to the kind of experiment: ATP-Sepharose interaction assay. Type of test: binding. As to conditions: purified HSP90 pre-incubated with substance. As to the method: Bound HSP90 was eluted HSP90 content was determined by immunoblotting.
ATP-Sepharose Interaction Assays. These were performed essentially as described in (Grenert et al., 1997). […] 25 ul of ATP-sepharose beads were added and the reactions were incubated for 30 min at 30° C. After thorough washing with ice-cold incubation buffer, bound proteins were eluted in sample buffer and HSP90 content was determined by immunoblotting.

For a further test, the system named is HSP70 and HSP25. As to the kind of experiment: Endogenous HSP protein expression in wild-type or HSF1 null MEFs (immunoblot). It counts as cell-based, mouse. The procedure: (§1) FIGS. 5B and 5C are photographs of Western blots showing that compound 1 binds HSP90 and causes HSF1-dependent expression of HSP70 and HSP25. A: Wild-type or HSF1 null MEFs were transfected with pGL3B-HSP70, an HSP70 promoter reporter construct, or parental vector (pGL3B), then treated with 40 μM of compound 1 for 24 hours and analyzed for luciferase content as described in Materials and Methods (*=P<0.005 relative to 0 compound 1; **=P<0.005 relative to wild-type MEFs treated with 40 uM compound 1. B: Wild-type or HSF1 null MEFs were treated with increasing concentrations of compound 1 for 24 hours, cells were lysed, normalized for protein content, and analyzed for levels of HSP70, HSP40, and HSP25 as indicated. C: Compound 6-conjugated Sepharose beads were incubated with purified HSP90 for 2 hours, washed, and levels of bound HSP90 were analyzed by immunoblot. Con=Control beads, Alone=Compound 6-beads alone, Comp=[…]+competing compound 1 (at 80 μM). Experiments in Panel A-C were performed three times with identical results.
(§2) Induction of cell stress results in the interaction of HSP90 with misfolded proteins and disrupts its association with HSF1, allowing it to bind and activate HSP70 and HSP25 promoters (Sanchez-Perez and Perona, 1999). […]

Test [2] concerns HSP70 promoter. As to the kind of experiment: HSP70 transcriptional reporter constructs in PC12 cells. Type of test: cell-based. As to conditions: transfected PC12 cells.
The subject of test [3] is HSP90. As to the kind of experiment: Compound 6-bead pulldown of purified HSP90. It counts as binding. As to conditions: competing compound at 80 μM. The procedure:
as §1
Compound 6 was coupled with Affi-Gel 10 beads (BioRad) and used as an affinity reagent in pulldown experiments. Beads were incubated either with whole cell lysates or with purified HSP90, washed extensively, and bound proteins were then eluted and analyzed by SDS-PAGE and immunoblotting. […]

The subject of a further test is JNK. The test is described as follows: JNK activity in vitro. The conditions noted are these: data not shown. Type of test: biochemical.
The subject of test [4] is HSP70 promoter. As to the kind of experiment: HSP70 promoter reporter transcriptional assay in MEFs (luciferase). It counts as cell-based, mouse. As to the method:
as §1, §2

Structures are written as SMILES.

On to `NS(=O)(=O)c1nn2cc(-c3ccccc3)nc2s1` [Compound 1], for which, in the test on Akt, the “phosphorylated Akt (pAkt) levels” value is “significantly enhanced”. In addition, in the test on Akt, the “total Akt levels” value was “reduced total Akt only slightly”. Also, the figures for the “protection against cisplatin-induced cell death” value in the test with PC12 cells (cisplatin 10 μM) and in the test with PC12 cells (cisplatin 50 μM) were “protected” and “not 50 μM”, respectively. The “protection against doxorubicin-induced cell death” value in the test with PC12 cells (doxorubicin) is “did not offer any protection”. In addition, the “apoptosis induced by paclitaxel” value with PC12 cells (paclitaxel 10 μM and 50 μM) was “effectively reduced”. Moreover, the “binding of HSP90 to gATP-Sepharose” value in the test with HSP90 [1] was “does not decrease the amount of HSP90 bound to gATP-Sepharose but rather increased their association”. For the same compound, the “expression of endogenous HSP70 and HSP25” value in the test with HSP70 and HSP25 (MEFs lacking HSF1, 24 hours) is “not in MEFs lacking HSF1”; in the test with HSP70 and HSP25 (wild type MEFs, 24 hours) it was “strong induction”. In addition, in the test with HSP70 promoter [2], the “activity of HSP70 transcriptional reporter constructs” value is “stimulated”. In addition, in the test with HSP90 [3], the “effect of excess unbound compound on compound 6-bead:HSP90 interaction” value was “strongly attenuated”. In addition, the “effect on JNK activity in vitro” value in the test on JNK was “no effect”. Also, the “transcriptional activity of the HSP70 promoter reporter construct” value is recorded as “remained at baseline” in the test with HSP70 promoter [4] (MEFs lacking HSF1, 40 μM) and “strongly induced” in the test with HSP70 promoter [4] (wild-type MEFs, 40 μM).
